No end group written: not given here.
Legend:
[1] = cited from earlier work
nNOS^VMH neurons [2] = experiment: Lordosis test with CNO pre-treatment followed by kisspeptin-10 (kisspeptin-nNOS^VMH coupling); assay type: in vivo, mice
Description: (§1) Chemogenetic manipulations (viral transfection, stereotaxic injections, and behavioral assessment). The AAV9 double floxed Gi-coupled hM4D DREADD fused with fluorescent mCherry protein under the control of human synapsin promoter (AAV-hSyn-DIO-hM4D(Gi)-mCherry) (Addgene; catalog #44362-AAV9) was stereotaxically injected into the vlVMH of Nosl-ires-cre female mice under 4% isoflurane anesthesia with constant airflow. Lordosis test was carried out as described above with sexually experience female mice after three lordosis test trials. Females received i.p. injection with 100 μL of clozapine N-oxide dihydrochloride (CNO; Tocris; catalog #6329), at a dose of 3 mg/kg diluted in sterile saline, one hour before behavioral assessment. Each mouse received either CNO or saline (vehicle) in a random order, and the two behavioral assessments were performed ten days apart.
(§2) Pharmacological treatments. SNAP: Female mice received a subcutaneous (s.c.) injection with 8 mg/kg S-nitroso-N-Acetyl-DL-Penicillamine (SNAP) (Sigma-Aldrich; catalog ##N3398) diluted in 100 μL of saline 15 minutes before behavioral testing and the chosen dose was based on previous reports (25). Kisspeptin: Female mice received a s.c. injection with 0.52 μg/kg kisspeptin-10 (Kiss-10; rodent metastin (45-54) amide; GeneCust; YY-10-NH2) diluted in 100 μL of saline 30 minutes before behavioral test based on previous reports (25). Sildenafil citrate: Female mice received an i.p. injection with 15 mg/kg sildenafil citrate (Sigma-Aldrich; catalog #171599-83-0) 1h before behavioral assessment based on previous trials from our laboratory (Chachlaki et al., unpublished data). Sildenafil citrate was firstly diluted in dimethyl sulfoxide (DMSO) to make up a stock solution of 25 mg/mL and further diluted with sterile saline to make up a working solution of 15 mg/mL for s.c. injection on the day of the injection.
Using a similar approach as described above, we stereotaxically delivered the expression of AAV9-hM4(Gi)-mCherry in nNOS^VMH neurons in both Nos1cre/+ and wild-type female mice. […]

[3] = tested on: control and PAMH female mice; experiment: Female sexual behavior test (lordosis, mild and severe rejection quotients) after pharmacological treatment; assay type: in vivo
Description: (§3) Female sexual behavior test. Estrus female mice were tested for lordosis behavior over the dark phase following previously reported protocols (25, 40). During the annotation of sexual behavior, we also assessed sexual rejection behaviors over the same period of time.
All behavior tests were videotaped and manually annotated using Behavioral Observation Research Interactive Software (BORIS) (76).
as §2
Previous reports indicate that the control of female sexual behavior is highly dependent upon NOergic signaling in rodents (23-25). Having established the loss of nNOS expression in hypothalamic sites in PAMH mice, we next addressed whether the replenishment of NO levels could rescue normal sexual function in these females. Control and PAMH female mice were injected either with saline or S-nitroso-N-acetylpenicillamine (SNAP; 8 mg/kg), a well-known NO donor to boost circulating NO levels.
NO-mediated physiological responses are mostly dictated by intracellular levels of cyclic guanosine monophosphate (cGMP). Commonly used drugs for male sexual dysfunction, such as sildenafil citrate, commercialized as Viagra®, enhance NOergic signaling by decreasing the degradation of cGMP accumulating intracellular levels of the latest. To determine the severity of NO insufficiency in PAMH mice, we administered sildenafil citrate to both groups and evaluated lordosis behavior.

cFOS = experiment: Percentage of cells expressing cFOS in hypothalamic and limbic areas following the lordosis test; assay type: in vivo, mice
Description: Immunohistochemistry. Tissue preparation for immunohistochemistry is shown in SI Appendix. Free-floating immunohistochemistry was performed as described elsewhere (29, 73). Primary antibodies were used at the respective concentrations: polyclonal sheep anti-nNOS (1:2,000; generous gift from Dr. Piers C. Emson and validated elsewhere (74)), polyclonal rabbit anti-PR (1:500; Sigma; catalog #SAB4502184), rabbit anti-red fluorescent protein (RPF) (1:500; Rockland Immunochemicals, Inc.; catalog #600-401-379), and polyclonal chicken anti-GFP (1:1,000; Aves Labs Inc., catalog #GFP-1020). Brain sections were incubated with a cocktail of primary antibodies and 2% normal donkey serum (NDS) in incubation solution (0.25% bovine serum albumin with 0.3% Triton in TBS) over 48 hours at 4° C. Following washes with TBS, brain sections were incubated with secondary antibodies. Alexa Fluor 488 donkey anti-sheep (reference #A11015), Alexa Fluor 647 donkey anti-rabbit, (reference #A31573), Alexa Fluor 568 donkey anti-rabbit (reference #A10042) were all purchased from Thermo Fisher Scientific Inc. and used at 1:400 dilution in TBS solution. Alexa Fluor 488 donkey anti-chicken (Jackson ImmunoResearch Labs; reference #703-545-155) was used at 1:500 dilution in TBS solution. Sections were mounted onto glass slides and left to dry until covered with Fluoromount-G™ with DAPI (Invitrogen/Thermo Fisher Scientific Inc.; reference #00-4959-52), and coverslipped.
Image acquisition and analysis. Two representative brain sections from each region (RP3V, VMH, rARN, mARN, and cARN) were chosen from each animal for Immunohistological analysis. Brain sections were firstly examined using an Axio Imager, Z1 ApoTome microscope (Zeiss, Oberkochen, Germany), and an AxioCam MRm camera (Zeiss). Confocal imaging and analyses Zeiss Spinning-Disk microscope Yokogawa CSU-X1 model (Zeiss; BioImaging Center Lille (BICeL), of the University of Lille, France). High magnification images were acquired taking Z-stacks of 0.5 μm-steps using a 40x-oil objective (1.30 NA). Confocal images were further processed with ImageJ software for cell counting analysis. Final analysis considered the average counting from two representative sections of each region.
We aimed to determine how 8 mg/kg SNAP treatment may change the neuronal activation landscape in the female brain in estrus control and PAMH mice following the lordosis test. […]

nNOS^VMH neurons [4] = experiment: Lordosis test after chemogenetic inhibition (hM4D(Gi) DREADD) of nNOS^VMH neurons with CNO; assay type: in vivo, mice
Description: as §3, §1
Among the three hypothalamic areas investigated in our study, the VMH (nNOS^VMH) is considered as the NOergic output responsible to control sexual performance in mammalian females (23), whereas nNOS^RP3V and nNOS^ARN are likely to contribute to the neuroendocrine control of GnRH/LH secretion (57, 58). […] To this end, we selectively targeted the expression of designer receptors exclusively activated by designer drugs (DREADD)-based tool hM4(Gi) into the VMH of Nos1cre/+ (Nos1-ires-cre; B6.129-Nos1tm1(cre)Mgmj/J) female mice (59). Viral transduction was established using a Cre-recombinase-dependent adeno-associated virus serotype 9 in which hM4 (Gi) is fused with mCherry reporter under the control of human synapsin (hSyn) promoter (AAV9-hSyn-DIO-hM4D(Gi)-mCherry) (Data not shown). The control group was composed of wild-type female mice receiving the same stereotaxic surgery. This approach provided an average efficiency of 86.82±2.33% of nNOS^VMH neurons targeted with AAV9-hM4 (Gi)-mCherry and with an off-target infection rate of 5.48±2.17% in non-nNOS^VMH neurons (N=5; Data not shown).
Following viral transfection, Nos1^cre/+ female mice were subjected to two lordosis tests and randomly received either vehicle or the DREADD ligand clozapine N-oxide (CNO; 3 mg/kg) one hour before behavioral assessment.

[5] = PAMH female mice, SNAP 8 mg/kg, P<0.0001, similar to control levels
[6] = control female mice, SNAP 8 mg/kg
[7] = Nos1cre/+ female mice, CNO 3 mg/kg, P<0.01
[8] = wild-type control group with same surgery, CNO 3 mg/kg

## [N]=O [Nitric oxide]
[1]
  half-life in the blood: a few seconds

## rodent metastin (45-54) amide (YNWNSFGLRY-NH2; UniProt Q6Y4S4 110-119, looked up) [kisspeptin-10, kisspeptin-10 peptide from GeneCust]
nNOS^VMH neurons [2]; control (wild-type) female mice, kisspeptin-10 0.52 μg/kg, -30 min, P<0.05
  lordosis performance: significantly enhanced lordosis performance

## CC(=O)NC(C(=O)O)C(C)(C)SN=O (racemic) [SNAP, S-nitroso-N-Acetyl-DL-Penicillamine]
[3]; PAMH female mice, SNAP 8 mg/kg s.c. 15 minutes before test, mean±SEM
  lordosis quotient (LQ): 68.17±6.97
[3]; PAMH female mice, SNAP 8 mg/kg vs saline
  fold increase of lordosis behavior vs saline: ~7.28 fold
[3]; PAMH female mice, SNAP 8 mg/kg, P<0.0001
  lordosis behavior (in words): robustly recovered normal lordosis behavior in PAMH female mice similar to control levels
[3]; [5]
  mild rejection behavior (MRQ): significantly reduced
  severe rejection behavior (SRQ): significantly reduced
[3]; [6]
  mild rejection behavior (MRQ): did not change these parameters
  severe rejection behavior (SRQ): did not change these parameters
cFOS; PAMH mice, SNAP 8 mg/kg
  cFOS expression in vlPAG and dmPAG: did not alter cFOS expression
cFOS; PAMH mice, SNAP 8 mg/kg, P<0.05
  proportion of nNOS neurons expressing cFOS (vlVMH, pdMeA): fully restored the proportion of nNOS cells expressing cFOS to control levels
cFOS; control mice, SNAP 8 mg/kg vs vehicle, P<0.05
  cFOS expression in vlPAG and dmPAG: lower cFOS expression compared with vehicle-treated control mice
cFOS; estrus PAMH mice, SNAP 8 mg/kg, after lordosis test
  cFOS expression in MPA, MnPO, vlVMH and pdMeA: increased cFOS expression in all of these four regions in PAMH mice to control levels

## C[N+]1([O-])CCN(C2=Nc3cc(Cl)ccc3Nc3ccccc32)CC1.Cl.Cl [CNO, clozapine N-oxide dihydrochloride]
nNOS^VMH neurons [4]; Nos1cre/+ female mice with AAV9-hM4D(Gi)-mCherry in VMH, CNO 3 mg/kg i.p. one hour before test, P<0.01 vs vehicle
  lordosis quotient (LQ): 4.24±2.26
nNOS^VMH neurons [4]; [7]
  mild rejection behavior vs vehicle-injected mice: higher
  severe rejection behavior vs vehicle-injected mice: higher
nNOS^VMH neurons [4]; [8]
  lordosis behavior, CNO vs vehicle: did not show any difference between treatments
  mild rejection behavior, CNO vs vehicle: did not show any difference between treatments
  severe rejection behavior, CNO vs vehicle: did not show any difference between treatments
nNOS^VMH neurons [2]; Nos1cre/+ female mice, CNO pre-treatment, P<0.01
  sexual (lordosis) behavior: caused significant disruption of sexual behavior
nNOS^VMH neurons [2]; control (wild-type) female mice, CNO alone, pre-injection -60 min
  lordosis behavioral output: did not have any effect

Reference: patent US20250288607A1, “METHODS FOR TREATING SEXUAL DYSFUNCTION ASSOCIATED WITH POLYCYSTIC OVARY SYNDROME (PCOS) OR WITH HYPOACTIVE SEXUAL DESIRE DISORDER (HSDD)” (INSTITUT NATIONAL DE LA SANTÉ ET DE LA RECHERCHE MÉDICALE, priority 2022, published 2025)
